Numbers after ± are expanded uncertainties.
Key:
[1] = xn = mol fraction of the nth substance listed; details: 101 kPa, Liquid, x2 = 0; for speed of sound: Frequency=2.75 MHz, Pulse-echo method; for mass density: Vibrating tube method
[2] = 101 kPa, Liquid; for speed of sound: Frequency=2.75 MHz, Pulse-echo method; for mass density: Vibrating tube method
[3] = refractive index (Na D-line) (dimensionless); details: 298.15 K; 101.33 kPa; Liquid; Standard Abbe refractometry

CC#N [acetonitrile] + CCCC[n+]1ccn(C)c1.O=S(=O)([N-]S(=O)(=O)C(F)(F)F)C(F)(F)F
[1]
Details	mass density [kg/m3]	speed of sound [m/s]
293.15 K	782 ± 0.15	1298.2 ± 1.2
298.15 K	776.6 ± 0.15	1277.7 ± 1.2
303.15 K	771.18 ± 0.15	1257.2 ± 1.2
308.15 K	765.72 ± 0.15	1236.9 ± 1.2
313.15 K	760.24 ± 0.16	1216.6 ± 1.2

CCCC[n+]1ccn(C)c1.O=S(=O)([N-]S(=O)(=O)C(F)(F)F)C(F)(F)F
[2]
Details	mass density [kg/m3]	speed of sound [m/s]
293.15 K	1439.23 ± 0.61	1237.9 ± 1.5
298.15 K	1434.44 ± 0.61	1226.7 ± 1.5
303.15 K	1429.65 ± 0.6	1215.6 ± 1.5
308.15 K	1424.88 ± 0.6	1204.6 ± 1.5
313.15 K	1420.12 ± 0.59	1193.7 ± 1.5

Details	refractive index
[3]	1.4265 ± 0.0008

CC#N [acetonitrile]
[2]
Details	mass density [kg/m3]	speed of sound [m/s]
293.15 K	782 ± 0.15	1298.2 ± 1.2
298.15 K	776.6 ± 0.15	1277.7 ± 1.2
303.15 K	771.18 ± 0.15	1257.2 ± 1.2
308.15 K	765.72 ± 0.15	1236.9 ± 1.2
313.15 K	760.24 ± 0.16	1216.6 ± 1.2

Details	refractive index
[3]	1.3416 ± 0.0008

C1CCOC1 [tetrahydrofuran] + CCCC[n+]1ccn(C)c1.O=S(=O)([N-]S(=O)(=O)C(F)(F)F)C(F)(F)F
[1]
Details	mass density [kg/m3]	speed of sound [m/s]
293.15 K	887.52 ± 0.12	1301.9 ± 1.2
298.15 K	882.06 ± 0.13	1277.5 ± 1.2
303.15 K	876.57 ± 0.13	1253.2 ± 1.2
308.15 K	871.04 ± 0.13	1229 ± 1.2

C1CCOC1 [tetrahydrofuran]
[2]
Details	mass density [kg/m3]	speed of sound [m/s]
293.15 K	887.52 ± 0.12	1301.9 ± 1.2
298.15 K	882.06 ± 0.13	1277.5 ± 1.2
303.15 K	876.57 ± 0.13	1253.2 ± 1.2
308.15 K	871.04 ± 0.13	1229 ± 1.2

Details	refractive index
[3]	1.4052 ± 0.0008

From the NIST ThermoML archive (doi:10.1021/je400781b)
